Measurements reported in article PMC7255104, “Receptor Characterization and Functional Activity of Pyrokinins on the Hindgut in the Adult Mosquito, Aedes aegypti” (Frontiers in Physiology, 2020).
Where a SMILES comes first, the peptide text is derived from it. [ ]: non-standard residue; d: D form. pGlu = O=C1CC[C@@H](C(=O)O)N1

How the values were obtained:
[1] = system: isolated recta of A. aegypti; assay: Rectal contraction assay (impedance converter); set-up: species or system Aedes aegypti; conditions: 1 μM, 2-min interval, mean of 6-18 preparations
Protocol: Hindgut contraction assays were conducted on isolated […] of female A. aegypti. […] The isolated tissue was secured with minutien pins within a Sylgard-lined petri-dish. Given its high sequence similarity to endogenous A. aegypti PK2 peptides (Supplementary Table S1), we used the R. prolixus PK2b peptide ([Paluzzi and O'Donnell, 2012]), henceforth referred to as RhoprPK2b, for motility bioassays. Commercially synthesized peptides (Genscript, Piscataway, NJ, United States), […] ([…]) and RhoprPK2[…]), were used to examine myomodulatory activity. […] To assess whether PK1 peptides plays a role in regulating rectal motility, contractions were monitored in saline to obtain baseline contraction rates and subsequently following […] or 5-HT treatments, using probes connected to an impedance converter (UFI model 2991, Morro Bay, CA, United States) connected to a Powerlab 4/30 and laptop computer running LabChart […].0 software (AD Instruments, Colorado Springs, CO, United States). […] Probes were positioned on either side of the rectum by observation with a dissecting microscope (Olympus SZ61), and contractile responses were recorded on LabChart […].0 software (AD Instruments, Colorado Springs, CO, United States). Contractions were monitored for two minutes prior to, and after the addition of either […] or 5-HT. […]

[2] = system: isolated ilea of female A. aegypti; assay: Ileal motility assay (video recordings); set-up: species or system Aedes aegypti; conditions: Figure 6, 1 μM, 5-HT added together with 1 μM RhoprPK2b
Protocol: Hindgut contraction assays were conducted on isolated […] of female A. aegypti. […] The isolated tissue was secured with minutien pins within a Sylgard-lined petri-dish. Given its high sequence similarity to endogenous A. aegypti PK2 peptides (Supplementary Table S1), we used the R. prolixus PK2b peptide ([Paluzzi and O'Donnell, 2012]), henceforth referred to as RhoprPK2b, for motility bioassays. Commercially synthesized peptides (Genscript, Piscataway, NJ, United States), […] ([…]) and RhoprPK2[…]), were used to examine myomodulatory activity. Serotonin (5-hydroxytryptamine, 5-HT; Sigma-Aldrich, Oakville, ON, Canada), previously shown to stimulate A. aegypti hindgut contractions ([Messer and Brown, 1995]), was used as a stimulatory control. Given the inhibitory properties of myoinhibitory peptides (having the consensus W(X6)W-NH2 carboxyl terminus) on insect hindgut motility ([Lange et al., 2012]), RhoprMIP-7 ([…]; Genscript, Piscataway, NJ, United States; [Paluzzi et al., 2015]) was used as an inhibitory control. […] Unlike the rectum, the mosquito ileum produces weaker contractions that we were unable to measure using an impedance converter as described above. […] The dissected gut was pinned in the midgut and rectum to allow the ileum to freely contract in saline and following treatments. Contractions were recorded for 2 min in saline that was used for baseline activity measurements, followed by three subsequent 2-min recordings, including: […] The RhoprPK2b was added along with the stimulatory or inhibitory compound (5-HT or RhoprMIP-7, respectively), to maintain its 1 μM concentration in the bath. […] To account for any potential changes in tissue contractile activity upon adding solutions to the bath, each of these variables were measured relative to baseline saline recordings of the same preparation as a ratio of change, where a value above or below one indicates an increase or a decrease, (respectively), in the rate, duration or length between each contraction in response to the treatment.

[3] = biological target: T1, A. aegypti PK2-R (Aedes aegypti, UniProt V9P4J1); assay: Heterologous functional receptor assay (aequorin bioluminescence), PK2-R; type: cell-based; conditions: CHO-K1 cells expressing PK2-R
T1 sequence (V9P4J1 1-638): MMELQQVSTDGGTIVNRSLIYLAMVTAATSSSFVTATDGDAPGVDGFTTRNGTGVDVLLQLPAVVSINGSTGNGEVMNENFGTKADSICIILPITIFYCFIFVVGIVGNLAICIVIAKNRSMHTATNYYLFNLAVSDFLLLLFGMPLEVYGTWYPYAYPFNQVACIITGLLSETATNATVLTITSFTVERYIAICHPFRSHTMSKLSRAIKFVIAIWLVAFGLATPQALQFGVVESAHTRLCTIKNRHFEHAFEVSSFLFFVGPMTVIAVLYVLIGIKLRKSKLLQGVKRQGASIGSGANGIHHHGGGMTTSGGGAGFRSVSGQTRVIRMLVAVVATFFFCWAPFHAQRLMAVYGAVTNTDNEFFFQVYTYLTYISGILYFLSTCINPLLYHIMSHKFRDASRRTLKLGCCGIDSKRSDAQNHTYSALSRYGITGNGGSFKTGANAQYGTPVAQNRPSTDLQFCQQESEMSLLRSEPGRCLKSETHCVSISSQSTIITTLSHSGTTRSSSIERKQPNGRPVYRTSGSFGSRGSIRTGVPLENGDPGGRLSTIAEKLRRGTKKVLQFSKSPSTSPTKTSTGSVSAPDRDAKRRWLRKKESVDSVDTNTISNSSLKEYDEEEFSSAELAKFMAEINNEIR
From the text: (§1) The complete open reading frame was amplified based on the partial ([Nene et al., 2007]) and complete sequences ([Choi et al., 2013]) reported earlier for the A. aegypti PK1-R (Genbank accession: EAT35008.1) and PK2-R (Genbank accession: KC155994.1). Forward 5′-[…]-3′ (PK1-R) or 5′-[…]-3′ (PK2-R) and reverse 5′-[…]-3′ (PK1-R) or 5′-[…]-3′ (PK2-R) primers were designed over the start and stop codons (underlined), respectively, and used to amplify the complete coding sequence using Q5 High-Fidelity DNA polymerase following manufacturer recommendations (New England Biolabs, Whitby, ON). […] The resulting products were cloned into pGEM-T Easy sequencing vector, and miniprep samples were sequenced to verify base accuracy. The receptor constructs were excised using standard restriction enzyme digestion and subcloned into the mammalian expression vector, pcDNA 3.1^+ (Life Technologies, Burlington, ON, Canada). Transfection quality plasmid DNA was purified from an overnight bacterial culture using the PureLink MidiPrep Kit (Invitrogen, Burlington, ON, Canada) following manufacturer guidelines.
(§2) Chinese hamster ovary cells (CHO-K1) described previously ([Paluzzi et al., 2012]; [Gondalia et al., 2016]; [Wahedi and Paluzzi, 2018]) were grown in Dulbecco’s modified eagles medium: nutrient F12 (DMEM:F12) media containing 10% heat-inactivated fetal bovine serum (FBS; Wisent, St. Bruno, QC, Canada), 200 μg/mL geneticin, and antimycotic-antibiotic mixture as described previously ([Wahedi and Paluzzi, 2018]). […] Various concentrations of synthesized PK peptides and other peptides (purity > 90%; Genscript, Piscataway, NJ, United States) were prepared in BSA media and loaded in quadruplicate into white 96-well luminescence plates (Greiner Bio-One, Germany).
Luminescence responses to A. aegypti CAPA-1 (GPTVGLFAFPRV-NH2), CAPA-2 (pQGLVPFPRV-NH2) and CAPA-PK1 (AGNSGANSGMWFGPRL-NH2) peptides, along with the R. prolixus PK2 orthologs, PK2a (NTVNFSPRL-NH2), and PK2b (SPPFAPRL-NH2) were examined. A list of peptides used in this study and sequence comparison to native A. aegypti pyrokinin peptides is found in Supplementary Table S1. Cells prepared for the functional assay were loaded into each well of the plate using an automated injector unit and luminescent response was measured with a Synergy 2 Multi-Mode Microplate Reader (BioTek, Winooski, VT, United States). Negative controls were carried out using BSA media alone whereas 50 μM ATP, which activates endogenously expressed purinoceptors ([Iredale and Hill, 1993]; [Michel et al., 1998]), was used as a positive control. Luminescence responses were normalized to ATP responses and analyzed in GraphPad Prism 7.02 (GraphPad Software, San Diego, CA, United States). EC50 values were determined using dose-response curves from multiple biological replicates.

[4] = system: anti-RhoprCAPA-2 primary antiserum (antigen EGGFISFPRV-NH2); assay: Competitive ELISA for antibody cross-reactivity; type: binding, rabbit; conditions: antiserum 1:1000; absorbance at 450 nm; mean ± SEM, n = 4; read-out: IC50, competitive ELISA against 1 nM biotinylated-DromeCAPA
Protocol: In brief, 96-well plates were coated with anti-RhoprCAPA-2 primary antiserum diluted to 1:1000 in carbonate buffer (15 mM Na2CO3-H2O and 35 mM NaHCO3 in water; pH 9.4) and incubated overnight at 4°C. Plate contents were discarded, blotted, and rinsed three times with wash buffer (350 mM NaCl, 2.7 mM KCl, 1.5 mM KH2PO4, 5.15 mM Na2HPO4-H2O, and 0.05% Tween-20 (v/v) in water). Wells were then incubated for 1.5 h on a rocker with block buffer [0.5% skim milk powder (w/v) and 0.5% BSA (w/v) in PBS]. The block solution was discarded, and standard solutions were added (100 μL/well). Standards consisted of AedaeCAPA-1 and AedaeCAPA-2 diluted in block buffer to achieve concentrations ranging from 250 pM to 250 nM, or AedaeCAPA-PK1 and RhoprPK2b from 4.8 nM to 75 uM. After a 1.5 h incubation on a rocker, 1 nM biotinylated-DromeCAPA diluted in block buffer ([MacMillan et al., 2018]) was added (100 μL/well) to compete with the unlabeled peptide standards for antibody binding. Following overnight incubation at 4°C, the wells were washed four times with wash buffer, and incubated at 4°C for 1.5 h with Avidin-HRP (1:2000; Bio-Rad, Mississauga, ON, Canada). […] Reactions were stopped with 100 μL/well 2N HCl and absorbance at 450 nm was measured using a Synergy 2 Multi-Mode Microplate Reader (BioTek, Winooski, VT, United States).

[5] = system: A. aegypti PK1-R; assay: Heterologous functional receptor assay (aequorin bioluminescence), PK1-R; type: cell-based, Aedes aegypti; conditions: CHO-K1 cells expressing PK1-R; luminescent response
From the text: as §1, with “The receptor constructs were excised using standard restriction enzyme digestion and subcloned into the mammalian expression vector, pcDNA 3.1^+ (Life Technologies, Burlington, ON, Canada). Transfection quality plasmid DNA was purified from an overnight bacterial culture using the PureLink MidiPrep Kit (Invitrogen, Burlington, ON, Canada) following manufacturer guidelines.” left out
as §2, with “Germany). […]” for “Germany).”

SMILES | fold change in contraction rate of female recta relative to baseline in saline ([1]; female recta) | fold change in contraction rate of male recta relative to baseline in saline ([1]; male recta) | ileal contraction frequency relative to baseline ([2]; 2-min recordings, mean of 15 preparations) | duration of each ileal contraction relative to baseline ([2]; 15 preparations) | length of time between ileal contractions relative to baseline ([2]; 15 preparations) | activation of PK2-R (in words) ([3]; luminescent response) | activation of PK2-R relative to the highly potent pyrokinins ([3]; very high concentrations) | IC50 [4] | activation of PK1-R (in words) [5]
NCCc1c[nH]c2ccc(O)cc12 [5-HT, 5-hydroxytryptamine] | 1.97 fold | 2.48 fold | 2.88 fold | effectively reduced | effectively reduced |  |  |  | 
CC(C)C[C@H](NC(=O)CNC(=O)[C@@H]1CCC(=O)N1)C(=O)N[C@H](C(=O)N1CCC[C@H]1C(=O)N[C@@H](Cc1ccccc1)C(=O)N1CCC[C@H]1C(=O)N[C@@H](CCCNC(=N)N)C(=O)N[C@H](C(N)=O)C(C)C)C(C)C [AedaeCAPA-2] ([pGlu]GLVPFPRV-NH2) |  |  |  |  |  | only active on PK2-R at very high concentrations | ≤ 25% | 16.9 nM | effective in activating PK1-R at high concentrations
